Measured values reported in ChEMBL document CHEMBL2396621, “Design, synthesis and biological evaluation of 2-mercapto-3-phenethylquinazoline bearing anilide fragments as potential antitumor agents: molecular docking study” (2013).

Experiments:
Format in all cases: functional
M14 = assay: Cytotoxicity against human M14 cells assessed as growth inhibition at 10 uM after 48 hrs by coulter counter analysis; details: M14, 48 h, read-out: GI
A498 = assay: Cytotoxicity against human A498 cells assessed as growth inhibition at 10 uM after 48 hrs by coulter counter analysis; details: A498, 48 h, read-out: GI
Hs-578T = assay: Cytotoxicity against human Hs578T cells assessed as growth inhibition at 10 uM after 48 hrs by coulter counter analysis; details: read-out: GI
786-0 = assay: Cytotoxicity against human 786-0 cells assessed as growth inhibition at 10 uM after 48 hrs by coulter counter analysis; details: 786-0, 48 h, read-out: GI
IGROV-1 = assay: Cytotoxicity against human IGROV1 cells assessed as growth inhibition at 10 uM after 48 hrs by coulter counter analysis; details: IGROV-1, 48 h, read-out: GI
OVCAR-4 = assay: Cytotoxicity against human OVCAR4 cells assessed as growth inhibition at 10 uM after 48 hrs by coulter counter analysis; details: OVCAR-4, 48 h, read-out: GI
NCI-H23 = assay: Cytotoxicity against human NCI-H23 cells assessed as growth inhibition at 10 uM after 48 hrs by coulter counter analysis; details: NCI-H23, 48 h, read-out: GI
[1] = Cytotoxicity against human NCI-ADR-RES cells assessed as growth inhibition at 10 uM after 48 hrs by coulter counter analysis; details: read-out: GI
SF-539 = assay: Cytotoxicity against human SF539 cells assessed as growth inhibition at 10 uM after 48 hrs by coulter counter analysis; details: SF-539, 48 h, read-out: GI
NCI-H522 = assay: Cytotoxicity against human NCI-H522 cells assessed as growth inhibition at 10 uM after 48 hrs by coulter counter analysis; details: NCI-H522, 48 h, read-out: GI
NCI-H460 = assay: Cytotoxicity against human NCI-H460 cells assessed as growth inhibition at 10 uM after 48 hrs by coulter counter analysis; details: NCI-H460, 48 h, read-out: GI
NCI-H226 = assay: Cytotoxicity against human NCI-H226 cells assessed as growth inhibition at 10 uM after 48 hrs by coulter counter analysis; details: NCI-H226, 48 h, read-out: GI
DU-145 = assay: Cytotoxicity against human DU145 cells assessed as growth inhibition at 10 uM after 48 hrs by coulter counter analysis; details: DU-145, 48 h, read-out: GI
ACHN = assay: Cytotoxicity against human ACHN cells assessed as growth inhibition at 10 uM after 48 hrs by coulter counter analysis; details: read-out: GI
SK-OV-3 = assay: Cytotoxicity against human SKOV3 cells assessed as growth inhibition at 10 uM after 48 hrs by coulter counter analysis; details: SK-OV-3, 48 h, read-out: GI
LOX IMVI = assay: Cytotoxicity against human LOXIMVI cells assessed as growth inhibition at 10 uM after 48 hrs by coulter counter analysis; details: read-out: GI
UACC-257 = assay: Cytotoxicity against human UACC257 cells assessed as growth inhibition at 10 uM after 48 hrs by coulter counter analysis; details: UACC-257, 48 h, read-out: GI
UO-31 = assay: Cytotoxicity against human UO31 cells assessed as growth inhibition at 10 uM after 48 hrs by coulter counter analysis; details: UO-31, 48 h, read-out: GI
COLO 205 = assay: Cytotoxicity against human COLO205 cells assessed as growth inhibition at 10 uM after 48 hrs by coulter counter analysis; details: COLO 205, 48 h, read-out: GI
TK-10 = assay: Cytotoxicity against human TK10 cells assessed as growth inhibition at 10 uM after 48 hrs by coulter counter analysis; details: TK-10, 48 h, read-out: GI
U-251 = assay: Cytotoxicity against human U251 cells assessed as growth inhibition at 10 uM after 48 hrs by coulter counter analysis; details: U-251, 48 h, read-out: GI
MDA-MB-231 = assay: Cytotoxicity against human MDA-MB-231 cells assessed as growth inhibition at 10 uM after 48 hrs by coulter counter analysis; details: MDA-MB-231, 48 h, read-out: GI
KM12 = assay: Cytotoxicity against human KM12 cells assessed as growth inhibition at 10 uM after 48 hrs by coulter counter analysis; details: KM12, 48 h, read-out: GI
HT-29 = assay: Cytotoxicity against human HT-29 cells assessed as growth inhibition at 10 uM after 48 hrs by coulter counter analysis; details: HT-29, 48 h, read-out: GI
[2] = Cytotoxicity against human EKVX cells assessed as growth inhibition at 10 uM after 48 hrs by coulter counter analysis; details: read-out: GI
OVCAR-5 = assay: Cytotoxicity against human OVCAR5 cells assessed as growth inhibition at 10 uM after 48 hrs by coulter counter analysis; details: OVCAR-5, 48 h, read-out: GI
UACC-62 = assay: Cytotoxicity against human UACC62 cells assessed as growth inhibition at 10 uM after 48 hrs by coulter counter analysis; details: UACC-62, 48 h, read-out: GI
RXF 393 = assay: Cytotoxicity against human RXF393 cells assessed as growth inhibition at 10 uM after 48 hrs by coulter counter analysis; details: RXF 393, 48 h, read-out: GI
HCT-15 = assay: Cytotoxicity against human HCT15 cells assessed as growth inhibition at 10 uM after 48 hrs by coulter counter analysis; details: HCT-15, 48 h, read-out: GI
CAKI-1 = assay: Cytotoxicity against human Caki1 cells assessed as growth inhibition at 10 uM after 48 hrs by coulter counter analysis; details: CAKI-1, 48 h, read-out: GI
HOP-62 = assay: Cytotoxicity against human HOP62 cells assessed as growth inhibition at 10 uM after 48 hrs by coulter counter analysis; details: HOP-62, 48 h, read-out: GI
Malme-3M = assay: Cytotoxicity against human MALME-3M cells assessed as growth inhibition at 10 uM after 48 hrs by coulter counter analysis; details: read-out: GI
SW-620 = assay: Cytotoxicity against human SW620 cells assessed as growth inhibition at 10 uM after 48 hrs by coulter counter analysis; details: SW-620, 48 h, read-out: GI
PC-3 = assay: Cytotoxicity against human PC3 cells assessed as growth inhibition at 10 uM after 48 hrs by coulter counter analysis; details: PC-3, 48 h, read-out: GI
SF-295 = assay: Cytotoxicity against human SF295 cells assessed as growth inhibition at 10 uM after 48 hrs by coulter counter analysis; details: SF-295, 48 h, read-out: GI
MDA-MB-435 = assay: Cytotoxicity against human MDA-MB-435 cells assessed as growth inhibition at 10 uM after 48 hrs by coulter counter analysis; details: MDA-MB-435, 48 h, read-out: GI
HCC 2998 = assay: Cytotoxicity against human HCC2998 cells assessed as growth inhibition at 10 uM after 48 hrs by coulter counter analysis; details: HCC 2998, 48 h, read-out: GI

SMILES	inhibition of growth at 10 µM (M14)	inhibition of growth at 10 µM (A498)	inhibition of growth at 10 µM (Hs-578T)	inhibition of growth at 10 µM (786-0)	inhibition of growth at 10 µM (IGROV-1)	inhibition of growth at 10 µM (OVCAR-4)	inhibition of growth at 10 µM (NCI-H23)	inhibition of growth at 10 µM [1]	inhibition of growth at 10 µM (SF-539)	inhibition of growth at 10 µM (NCI-H522)	inhibition of growth at 10 µM (NCI-H460)	inhibition of growth at 10 µM (NCI-H226)	inhibition of growth at 10 µM (DU-145)	inhibition of growth at 10 µM (ACHN)	inhibition of growth at 10 µM (SK-OV-3)	inhibition of growth at 10 µM (LOX IMVI)	inhibition of growth at 10 µM (UACC-257)	inhibition of growth at 10 µM (UO-31)	inhibition of growth at 10 µM (COLO 205)	inhibition of growth at 10 µM (TK-10)	also measured
O=C(CSc1nc2ccccc2c(=O)n1CCc1ccccc1)Oc1ccc(Cl)cc1	< 10%	10%	41%	< 10%	15%	59%	25%	10%	< 10%	37%	< 10%	13%	< 10%	< 10%	28%	14%	< 10%	< 10%	< 10%	< 10%	inhibition of growth at 10 µM (U-251): < 10%; inhibition of growth at 10 µM (MDA-MB-231): 33%; inhibition of growth at 10 µM (KM12): < 10%; inhibition of growth at 10 µM (HT-29): < 10%; inhibition of growth at 10 µM [2]: 28%; inhibition of growth at 10 µM (OVCAR-5): < 10%; inhibition of growth at 10 µM (UACC-62): 11%; inhibition of growth at 10 µM (RXF 393): < 10%; inhibition of growth at 10 µM (HCT-15): 25%; inhibition of growth at 10 µM (CAKI-1): 27%; inhibition of growth at 10 µM (HOP-62): 10%; inhibition of growth at 10 µM (Malme-3M): < 10%; inhibition of growth at 10 µM (SW-620): < 10%; inhibition of growth at 10 µM (PC-3): 25%; inhibition of growth at 10 µM (SF-295): < 10%; inhibition of growth at 10 µM (MDA-MB-435): < 10%; inhibition of growth at 10 µM (HCC 2998): < 10%
O=C(CSc1nc2ccccc2c(=O)n1CCc1ccccc1)Nc1ccccc1	10%	11%	< 10%	< 10%	< 10%	< 10%	11%	< 10%	< 10%	10%	< 10%	< 10%	< 10%	< 10%	14%	11%	< 10%	< 10%	< 10%	< 10%	inhibition of growth at 10 µM (U-251): < 10%; inhibition of growth at 10 µM (MDA-MB-231): 35%; inhibition of growth at 10 µM (KM12): < 10%; inhibition of growth at 10 µM (HT-29): < 10%; inhibition of growth at 10 µM [2]: 16%; inhibition of growth at 10 µM (OVCAR-5): < 10%; inhibition of growth at 10 µM (UACC-62): 16%; inhibition of growth at 10 µM (RXF 393): < 10%; inhibition of growth at 10 µM (HCT-15): < 10%; inhibition of growth at 10 µM (CAKI-1): < 10%; inhibition of growth at 10 µM (HOP-62): < 10%; inhibition of growth at 10 µM (Malme-3M): < 10%; inhibition of growth at 10 µM (SW-620): < 10%; inhibition of growth at 10 µM (PC-3): 10%; inhibition of growth at 10 µM (SF-295): < 10%; inhibition of growth at 10 µM (MDA-MB-435): < 10%; inhibition of growth at 10 µM (HCC 2998): < 10%
COc1cc(NC(=O)CCSc2nc3ccccc3c(=O)n2CCc2ccccc2)cc(OC)c1OC	40%	37%	67%	29%	21%	51%	28%	13%	70%	52%	17%	10%	< 10%	21%	44%	54%	72%	22%	20%	17%	inhibition of growth at 10 µM (U-251): 25%; inhibition of growth at 10 µM (MDA-MB-231): 66%; inhibition of growth at 10 µM (KM12): 39%; inhibition of growth at 10 µM (HT-29): 18%; inhibition of growth at 10 µM [2]: 34%; inhibition of growth at 10 µM (OVCAR-5): < 10%; inhibition of growth at 10 µM (UACC-62): 30%; inhibition of growth at 10 µM (RXF 393): 12%; inhibition of growth at 10 µM (HCT-15): 18%; inhibition of growth at 10 µM (CAKI-1): 74%; inhibition of growth at 10 µM (HOP-62): 45%; inhibition of growth at 10 µM (Malme-3M): 77%; inhibition of growth at 10 µM (SW-620): 14%; inhibition of growth at 10 µM (PC-3): 25%; inhibition of growth at 10 µM (SF-295): 10%; inhibition of growth at 10 µM (MDA-MB-435): 38%; inhibition of growth at 10 µM (HCC 2998): < 10%
